The results in this text go back to PubChem BioAssay (NCI).

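Test compounds were applied to cells in 96-well plates for 48 hours at 5 doses. GI50: concentration for 50% inhibition of growth. The concentration for full growth arrest is given as TGI.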

Some test systems named below: HCT-15 colon; HCT-116 colon; OVCAR-4 ovarian; XF 498 CNS; SF-295 CNS; A549 NSCLC; MOLT-4 leukemia; SK-MEL-2 melanoma; HCC-2998 colon.
Assay in all cases: NCI-60 cell line screen, 48 h

As to `c1ccc2c(c1)nc(NC1CCCC1)c1[nH]c(C3CCCC3)nc12`, the TGI in the test with HCT-15 colon amounted to 28.3 µM; in the test on HCT-116 colon it was 17.6 µM; in the test on OVCAR-4 ovarian it was 30.1 µM; in the test with XF 498 CNS, 34.4 µM; in the test with SF-295 CNS, 32.8 µM; with A549 NSCLC, 58.8 µM. The TGI is over 41.7 µM with MOLT-4 leukemia, 19.1 µM with SK-MEL-2 melanoma and 17.6 µM with HCC-2998 colon.
In the case of `O=[Se](=O)c1ccccc1.O=[Se](=O)c1ccccc1.[Cu]`, the GI50 with HCT-15 colon was 16.4 µM; in the test with HCT-116 colon, 17.4 µM; with OVCAR-4 ovarian it was 18.7 µM; with XF 498 CNS it was 15.5 µM; with SF-295 CNS, 16 µM; with A549 NSCLC, 26 µM. Further, the figures for the GI50 in the test with MOLT-4 leukemia, in the test with SK-MEL-2 melanoma and in the test on HCC-2998 colon were 12 µM, 18.8 µM and 16.6 µM, respectively. The TGI stood at 34.1 µM in the test with HCT-15 colon; 33 µM in the test on HCT-116 colon; 34.5 µM with OVCAR-4 ovarian; 28.9 µM in the test with XF 498 CNS; 29.8 µM in the test with SF-295 CNS; 52.2 µM in the test with A549 NSCLC. For the same molecule, the TGI in the test on MOLT-4 leukemia is 65.8 µM; with SK-MEL-2 melanoma, 33.5 µM; with HCC-2998 colon, 32.9 µM.
